Measured values as given in patent publication US4761415A, “Dopamine-β-hydroxylase inhibitors” (SmithKline Beckman Corporation, priority 1986, dated 1988).
Where a name gives a salt, the structure may show the parent alone.

Assays:
[1] = test system: DBH; details: cited from earlier work
[2] = Ehrreich et al., 1976; cited from earlier work
[3] = target: T1, dopamine-β-hydroxylase (DBH) (Bos taurus, UniProt P15101); assay: biochemical; details: molar concentration at which DBH activity was halved
T1 sequence (P15101 1-610): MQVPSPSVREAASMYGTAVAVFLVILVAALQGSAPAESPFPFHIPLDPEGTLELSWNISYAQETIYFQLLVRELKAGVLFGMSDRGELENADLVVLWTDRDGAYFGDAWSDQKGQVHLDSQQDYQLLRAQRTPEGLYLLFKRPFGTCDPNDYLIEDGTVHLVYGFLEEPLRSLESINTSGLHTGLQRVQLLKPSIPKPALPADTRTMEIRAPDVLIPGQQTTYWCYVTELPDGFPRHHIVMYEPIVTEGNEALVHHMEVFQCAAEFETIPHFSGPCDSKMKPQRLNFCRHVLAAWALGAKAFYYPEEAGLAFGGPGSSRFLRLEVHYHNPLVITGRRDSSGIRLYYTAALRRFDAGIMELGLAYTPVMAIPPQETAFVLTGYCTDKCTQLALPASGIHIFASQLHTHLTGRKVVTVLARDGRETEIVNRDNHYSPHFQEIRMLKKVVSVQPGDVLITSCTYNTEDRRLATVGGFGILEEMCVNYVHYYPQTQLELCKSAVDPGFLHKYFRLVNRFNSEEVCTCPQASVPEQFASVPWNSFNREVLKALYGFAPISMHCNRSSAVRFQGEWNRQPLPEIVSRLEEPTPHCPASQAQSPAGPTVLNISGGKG
Description: J. J. Pisano, et al., Biochim. Biophys. Acta, 43, 566-568 (1960). Octopamine was assayed following sodium periodate oxidation to p-hydroxybenzaldehyde by measuring spectrophotometric absorbance at 330 nm.

[4] = inhibition of cytochrome P450-dependent mixed function oxidase catalyzed deethylation of ethoxycoumarin; format: in vitro ADME; details: read-out: P-450 IC50
Description: The compounds listed in Table I also were evaluated for their ability to inhibit cytochrome P450-dependent mixed function oxidase catalyzed deethylation of ethoxycoumarin by the procedure of […] and Poland, J. Pharmacol. Exp. Ther., 205, 596-605 (1978).

[5] = test system: spontaneously hypertensive rats; assay: mean arterial blood pressure in spontaneously hypertensive rats; format: in vivo, rat; details: 50 mg/kg intraperitoneally; for time to significant blood pressure reduction following treatment / blood pressure reduction (in words): compared to vehicle-treated controls; for blood pressure reduction (in words): within 30 minutes; for maximal blood pressure reduction: monitored for 260 minutes, indwelling cannulae in tail arteries
Description: Further, spontaneously hypertensive rats were treated with a suspension or solution of 3-mercapto-4-benzyl-5-[(4-methyl-piperazinyl)methyl]-1,2,4-triazole or 3-mercapto-4-(3-fluorobenzyl)-5[(4-methyl-1-piperazinyl)methyl]-1,2,4-triazole at a dose of 50 mg/kg intraperitoneally, and mean arterial blood pressure was monitored for 260 minutes using indwelling cannulae in the tail arteries. […] The maximal blood pressure reductions were approximately 25 and 40 mmHg, respectively, for each of the administered compounds.

[6] = Teresawa et al., Japan. Cir. J. 35, 339 (1971); cited from earlier work

Row | SMILES | DBH inhibition (in words, literature) [1] | IC50 [3] [µM] | IC50 [4] [µM] | also measured
1 | CCCCc1ccc(C(N)=O)nc1 [Bupicomide, 5-(n-butyl)picolinamine] | DBH inhibitor | – | – | antihypertensive activity [2]: has antihypertensive activity
2 | O=C(O)c1ccc(CCCCCl)cn1 [5-(4-chlorobutyl) picolinic acid] | inhibit DBH | – | – | –
3 | CN1CCN(Cc2nnc(S)n2Cc2cccc(F)c2)CC1 [Example 2, 3-Mercapto-4-(3-fluorobenzyl)-5-[(4-methyl-1-piperazinyl)methyl]-1,2,4-triazole] | – | 60 | 375 | time to significant blood pressure reduction following treatment [5]: ≤ 30 min; blood pressure reduction (in words) [5]: significant blood pressure reductions; maximal blood pressure reduction [5]: ~40 mmHg
4 | CN1CCN(Cc2nnc(S)n2Cc2cc(F)cc(F)c2)CC1 [Example 3, 3-Mercapto-4-(3,5-difluorobenzyl)-5-[(4-methyl-1-piperazinyl)methyl]-1,2,4-triazole] | – | 50 | 350 | –
5 | O=C(O)c1ccc(CCC(Br)CBr)cn1 (stereo not shown) [5-(3,4-dibromobutyl)picolinic acid] | DBH inhibitors | – | – | –
6 | NOCc1ccccc1 [Benzyloxyamine, benzyloxyamine] | apparently act as competitive inhibitors | – | – | –
7 | CCCCc1ccc(C(=O)O)nc1 [Fusaric acid] | – | – | – | hepatotoxicity [6]: hepatotoxic
8 | Fc1cc(F)cc(Cn2ccnc2S)c1 [1-(3,5-difluorobenzyl)-2-mercapto imidazole, reference compound] | – | 1.2 | 12 | –
9 | CN(C)C(=S)SCc1ccc(C(=O)O)nc1 [5-(dimethyldithiocarbamoylmethyl)picolinic acid] | DBH inhibitors | – | – | –
10 | CN1CCN(Cc2nnc(S)n2Cc2ccccc2)CC1 [3-mercapto-4-benzyl-5-[(4-methyl-1-piperazinyl)methyl]-1,2,4-triazole hydrochloride] | – | 90 | 700 | –
11 | NNCc1ccccc1 [benzylhydrazine] | apparently act as competitive inhibitors | – | – | –
12 | CN1CCN(Cc2nnc(S)n2Cc2ccccc2)CC1 [Example 1, 3-Mercapto-4-benzyl-5-[(4-methyl-1-piperazinyl)methyl]-1,2,4-triazole] | – | – | – | time to significant blood pressure reduction following treatment [5]: ≤ 30 min; blood pressure reduction (in words) [5]: significant blood pressure reductions; maximal blood pressure reduction [5]: approximately 25 mmHg
